The test system of data set [1] is HCT-116. In words: Antitumor activity against human HCT-116 cells xenografted in female BALB/cA nude mouse model assessed as tumor shrinkage by measuring relative tumor proliferation rate at 25 mg/kg,iv administered twice per week and measured after 24 days relative to control. In kind it is functional. The conditions noted are these: time 24 day. (In xenograft studies the graft and the host belong to different species.)

Data set [2] deals with HCT-116. In words: Antitumor activity against human HCT-116 cells xenografted in female BALB/cA nude mouse model assessed as tumor shrinkage at 25 mg/kg, iv administered twice per week measured after 100 days relative to control. The settings on record: time 100 day. It is filed as functional.
Data set [3] is described as follows: Toxicity in female BALB/cA nude mouse assessed as effect on body weight loss at 25 mg/kg, iv administered twice per week measured after 107 days. It is filed as organism-based. The settings on record: in vivo, 2568 h, time 107 day.
Data set [4] in a line: Toxicity in female BALB/cA nude mouse assessed as necrosis in tumor tissue at 25 mg/kg, iv measured after 24 hrs by H and E staining based analysis. It is filed as organism-based. The conditions noted are these: in vivo.
Data set [5] is described as follows: Toxicity in female BALB/cA nude mouse assessed as fibrotic changes in spleen at 25 mg/kg, iv administered once a week for 35 days by H and E staining based analysis. In kind it is organism-based. The conditions noted are these: in vivo, 840 h, time 35 day.
The nature of data set [6]: Toxicity in female BALB/cA nude mouse assessed as fibrotic changes in kidney at 25 mg/kg, iv administered once a week for 35 days by H and E staining based analysis. It is filed as organism-based. The conditions noted are these: in vivo, 840 h, time 35 day.
In data set [7] the test system is HCT-116. In words: Antitumor activity against human HCT-116 cells xenografted in female BALB/cA nude mouse model assessed as increase in tumor cell apoptosis by measuring increase in red fluorescence at 38 mg/kg, iv by TUNEL analysis. In kind it is functional, organism-based.
A short description of data set [8]: Toxicity in female BALB/cA nude mouse assessed as appearance of inflammatory lesions in heart at 38 mg/kg, iv administered once a week for 35 days by H and E staining based analysis. In kind it is organism-based. The settings on record: in vivo, 840 h, time 35 day.

Molecules are shown by their SMILES. Activity calls are given as the source filed them. The calls are words filed in the database; no cut-off is given here.

Consider `CCc1c2c(nc3ccc(OCc4ccc(O[C@@H]5O[C@H](C(=O)O)[C@@H](O)[C@H](O)[C@H]5O)c(NC(=O)CCNC(=O)CCCCCN5C(=O)C=CC5=O)c4)cc13)-c1cc3c(c(=O)n1C2)COC(=O)[C@]3(O)CC`, for which the Activity was 4.6% in data set [1]; 100% in data set [2]; “Non-toxic” in data set [3]; “Toxic” in data set [4]; “Non-toxic” in data set [5]; “Non-toxic” in data set [6].

Regarding `CCc1c2c(nc3ccc(OCc4ccc(O[C@@H]5O[C@H](C(=O)O)[C@@H](O)[C@H](O)[C@H]5O)c(NC(=O)CCNC(=O)COCCOCCNC(=O)COCCOCCNC(=O)CC[C@H](NC(=O)CCCCCCCCCCCCCCCCC(=O)O)C(=O)O)c4)cc13)-c1cc3c(c(=O)n1C2)COC(=O)[C@]3(O)CC`, the result in data set [7] was Active. The Activity entry in data set [8] is reported as “Non-toxic”.

Source of the values: ChEMBL document CHEMBL6134851, “Comparative Study on Covalent and Noncovalent Endogenous Albumin-Binding β-Glucuronidase-Activated SN38 Prodrugs for Antitumor Efficacy” (J Med Chem, 2025).
